Results taken from patent US8853389B2, “Process for refining cefmetazole sodium” (Hainan Lingkang Pharmaceutical Co., Ltd., priority 2011, dated 2014).

What was measured:
[1] = solubility in solvents; format: physicochemical
Text: Since the solubility of Cefmetazole sodium is high in water but very low in ethanol and even lower in acetone, a mixture of water and ethanol or a mixture of water and acetone is chosen as the solvent to recrystallize Cefmetazole sodium.

[2] = system: Bacteroides fragilis; conditions: cited from earlier work
[3] = system: catarrhal Brenham bacteria; conditions: cited from earlier work
[4] = system: pneumococcus; conditions: cited from earlier work
[5] = system: group A hemolytic streptococcus; conditions: cited from earlier work
[6] = system: methicillin-resistant Staphylococcus aureus; conditions: cited from earlier work
[7] = system: Escherichia coli; conditions: cited from earlier work
[8] = system: broad-spectrum β-lactamase generated by negative bacilli; conditions: cited from earlier work
[9] = appearance of aqueous solution of refined material; format: physicochemical; conditions: solution of about 0.1 g/mL in water
[10] = system: meningococcus; conditions: cited from earlier work
[11] = system: Staphylococcus aureus; conditions: cited from earlier work
[12] = system: Enterobacter; conditions: cited from earlier work
[13] = system: Pseudomonas; conditions: cited from earlier work
[14] = system: Proteus mirabilis; conditions: cited from earlier work
[15] = system: Klebsiella pneumoniae; conditions: cited from earlier work
[16] = system: Salmonella; conditions: cited from earlier work
[17] = system: Shigella; conditions: cited from earlier work

CO[C@]1(NC(=O)CSCC#N)C(=O)N2C(C(=O)[O-])=C(CSc3nnnn3C)CS[C@H]21.[Na+] [Cefmetazole sodium]
solubility ([1]; in ethanol): very low | solubility ([1]; in water): high | antibacterial activity [2]: good antibacterial activity | sensitivity [3]: high sensitivity | sensitivity [4]: low sensitivity or resistance | sensitivity [5]: high sensitivity | sensitivity [6]: low sensitivity or resistance | antibacterial activity [7]: relatively good activity | stability towards β-lactamase [8]: more stable | appearance of solution [9]: clear and colorless | sensitivity [10]: low sensitivity or resistance | sensitivity [11]: high sensitivity | sensitivity [12]: low sensitivity or resistance | sensitivity [13]: low sensitivity or resistance | antibacterial activity [14]: relatively good activity | antibacterial activity [15]: relatively good activity | antibacterial activity [16]: relatively good activity | antibacterial activity [17]: relatively good activity
